MIC data for five compounds are collected here from ChEMBL document CHEMBL1275471, “ISEcp1-mediated transposition of qnrB-like gene in Escherichia coli” (2008).

The term MIC denotes the lowest concentration that inhibits growth of the organism. High values mean a need for much substance, low ones inhibition by little substance.

Type in all cases: functional
The subject of assay [1] is Escherichia coli. Description: Antimicrobial activity against Escherichia coli J53 transconjugate by CLSI method.
Assay [2] has as its system Escherichia coli. As to the kind of experiment: Antimicrobial activity against Escherichia coli R4525 expressing gyrA S83L and D87Y and parC S80I and E84G mutant gene by CLSI method.
Assay [3] relates to Escherichia coli. Description: Antimicrobial activity against azide-resistant Escherichia coli J53 by CLSI method.

SMILES strings stand for the structures. ≈ marks a conversion by molar mass, not a printed value.

`CCn1cc(C(=O)O)c(=O)c2cc(F)c(N3CCNCC3)cc21` [NORFLOXACIN]: the MIC in assay [1] was 1 µg/mL (≈ 3.13 µM); in assay [2], above 256 µg/mL; in assay [3], 0.12 µg/mL (≈ 0.376 µM).
The compound `CC1COc2c(N3CCN(C)CC3)c(F)cc3c(=O)c(C(=O)O)cn1c23` (stereo not drawn) [OFLOXACIN] showed an MIC in assay [2] above 32 µg/mL.
In the case of `CCN1CCN(c2cc3c(cc2F)c(=O)c(C(=O)O)cn3C2CC2)CC1` [ENROFLOXACIN], the MIC in assay [1] is 0.5 µg/mL (≈ 1.39 µM); in assay [2], above 32 µg/mL; in assay [3], 0.01 µg/mL (≈ 0.0278 µM).
For `CCn1cc(C(=O)O)c(=O)c2ccc(C)nc21` [NALIDIXIC ACID], the MIC is 32 µg/mL (≈ 138 µM) in assay [1], above 256 µg/mL in assay [2] and 4 µg/mL (≈ 17.2 µM) in assay [3].
Turning to `C[C@@H]1CN(c2c(F)c(N)c3c(=O)c(C(=O)O)cn(C4CC4)c3c2F)C[C@H](C)N1` [SPARFLOXACIN], the MIC was 1 µg/mL (≈ 2.55 µM) in assay [1], above 32 µg/mL in assay [2] and 0.01 µg/mL (≈ 0.0255 µM) in assay [3].
